This passage reports GI50 and TGI results from PubChem BioAssay (NCI).

Where “and” joins values, the source holds several entries; their conditions need not be identical. Equal entries are not always repeated.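 Growth conditions: 96-well plates. Treatment: test compound, 48 hours, 5 concentrations. Analysis: linear interpolation between bracketing concentrations; unreached endpoints set to highest concentration. GI50: concentration for 50% inhibition of growth. The concentration for full growth arrest is given as TGI.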

The first test deals with U251 CNS. As to the kind of experiment: inhibition of tumour cell growth, NCI panel, 48 h.
With `O=C1c2cccc(NCCN=Cc3cc(O)ccc3O)c2C(=O)c2c(NCCN=Cc3cc(O)ccc3O)cccc21`, the GI50 was 0.739 µM and the TGI was found to be 2.56 µM.
The corresponding values for `CSc1cc(N=Nc2nc3ccccc3s2)c2ccccc2c1O` are 9.03 µM and 19.4 µM.
The corresponding values for `COc1cc2c3c(n(C)c(=O)c2cc1OC)-c1cc2c(cc1/C3=C\CCCN1C(=O)c3ccccc3C1=O)OCO2` are 12.8 µM and greater than 40 µM.
On to `COc1cccc(-c2cc(=O)c3cc(N(C)C)ccc3[nH]2)c1`, for which the GI50 was 0.0182 µM and 0.00594 µM.
Regarding `Cn1cc(-c2cnc3ccc(NC(=O)Nc4ccc(F)c(Br)c4)cc3n2)cn1`, the GI50 was 1.76 µM and the TGI is 3.88 µM.

For a further test, the system named is EKVX NSCLC. Description: inhibition of tumour cell growth, NCI panel, 48 h.
Consider `CCc1c(Oc2ccc(C(C)=O)cc2)c2ccccc2[nH]c1=O`, for which the GI50 was 9.65 µM and the TGI was greater than 66 µM.
`Cc1nc2cccc([N+](=O)[O-])c2c(NCCCN(C)C)c1C` had a TGI greater than 31.6 µM.
Turning to `Cn1c(N2NC(=O)C(N=Nc3ccc(S(N)(=O)=O)cc3)C2=O)nc(-c2ccco2)c(C#N)c1=O` (configuration not stated), the GI50 was 35.7 µM and the TGI was greater than 50 µM.
Regarding `Cc1c(C(=O)N/N=C/c2ccc(Cl)cc2)nnn1-c1ccnc2c(C(F)(F)F)cccc12`, the GI50 is 25.3 µM and the TGI is greater than 100 µM.
On the same counts, the results for `Cc1nn(CN2CCN(C)CC2)c(=S)n1/N=C/c1cccc2ccccc12` are 31.8 µM and greater than 100 µM.
On the same counts, the results for `Cc1ccc(S(=O)(=O)N(CCOc2ccc(/C(N)=N/Cl)cc2)CCOc2ccc(/C(N)=N\Cl)cc2)cc1` are 18.4 µM and 93.2 µM.
The corresponding values for `COc1ccc2c(c1)c(-c1nc(-c3cn(C)c4ncccc34)cs1)cn2CCCN1CCCCC1` are 1.67 µM and 3.17 µM.
Regarding `O=C1c2cccc(NCCN=Cc3cc(O)ccc3O)c2C(=O)c2c(NCCN=Cc3cc(O)ccc3O)cccc21`, the GI50 is 1.8 µM and the TGI is 5.77 µM.
The corresponding values for `CSc1cc(N=Nc2nc3ccccc3s2)c2ccccc2c1O` are 7.2 µM and 16.4 µM.
On the same counts, the results for `COc1cc2c3c(n(C)c(=O)c2cc1OC)-c1cc2c(cc1/C3=C\CCCN1C(=O)c3ccccc3C1=O)OCO2` are 5.2 µM and greater than 40 µM.
As for `Cn1cc(-c2cnc3ccc(NC(=O)Nc4ccc(F)c(Br)c4)cc3n2)cn1`, the GI50 is 2.55 µM and the TGI was found to be 7.96 µM.
The corresponding values for `COc1cc(/C=C/c2cc(/C=C/c3ccc(O)c(OC)c3)n(-c3ccccc3)n2)ccc1O` are 1.12 µM and 3.7 µM.

Another test has as its system HS 578T breast. As to the kind of experiment: inhibition of tumour cell growth, NCI panel, 48 h.
Turning to `CCc1c(Oc2ccc(C(C)=O)cc2)c2ccccc2[nH]c1=O`, the GI50 is 4.3 µM and the TGI is 43.6 µM.
For the compound `Cc1nc2cccc([N+](=O)[O-])c2c(NCCCN(C)C)c1C`, the TGI is greater than 100 µM.
`Cn1c(N2NC(=O)C(N=Nc3ccc(S(N)(=O)=O)cc3)C2=O)nc(-c2ccco2)c(C#N)c1=O` (configuration not stated): the GI50 was 9.85 µM and the TGI was found to be 38.6 µM.
`Cc1c(C(=O)N/N=C/c2ccc(Cl)cc2)nnn1-c1ccnc2c(C(F)(F)F)cccc12`: the GI50 was 3.62 µM and the TGI worked out at 12 µM.
The corresponding values for `Cc1nn(CN2CCN(C)CC2)c(=S)n1/N=C/c1cccc2ccccc12` are 26.8 µM and 74.8 µM.
The corresponding values for `N#C/C(=C1C=C/C(=N/O)C(Br)=C/1)c1ccccc1` are 2.52 µM and 8.09 µM.
On to `CN(C)CCNc1cc(-c2ccccc2)nc2ccccc12`, for which the GI50 is 12 µM and the TGI was determined as 37.1 µM.
On the same counts, the results for `CC[CH2][Pb]([CH2]CC)([CH2]CC)[O]C(=O)C(F)(F)F` are 0.0947 µM and 0.759 µM.
As to `Cc1ccc2c(c1)C(=O)/C(=C/c1ncc([N+](=O)[O-])n1C)O2`, the GI50 was 1.94 µM and the TGI is greater than 23.2 µM.
`O=C(O)Cn1ccc(=O)c2ccc([N+](=O)[O-])cc21` showed a TGI greater than 100 µM.
Take `Cc1ccc(S(=O)(=O)N(CCOc2ccc(/C(N)=N/Cl)cc2)CCOc2ccc(/C(N)=N\Cl)cc2)cc1`: the GI50 was 4.28 µM and the TGI turned out to be 22.7 µM.
On the same counts, the results for `COc1ccc2c(c1)c(-c1nc(-c3cn(C)c4ncccc34)cs1)cn2CCCN1CCCCC1` are 2.24 µM and 5.8 µM.
The corresponding values for `O=C1c2cccc(NCCN=Cc3cc(O)ccc3O)c2C(=O)c2c(NCCN=Cc3cc(O)ccc3O)cccc21` are 1.03 µM and 3.78 µM.
The corresponding values for `CSc1cc(N=Nc2nc3ccccc3s2)c2ccccc2c1O` are 20.9 µM and greater than 50 µM.
On to `COc1cc2c3c(n(C)c(=O)c2cc1OC)-c1cc2c(cc1/C3=C\CCCN1C(=O)c3ccccc3C1=O)OCO2`, for which the GI50 was greater than 40 µM and the TGI was greater than 40 µM.
Turning to `COc1cccc(-c2cc(=O)c3cc(N(C)C)ccc3[nH]2)c1`, the GI50 was 0.0221 µM and 0.00461 µM.
Turning to `Cn1cc(-c2cnc3ccc(NC(=O)Nc4ccc(F)c(Br)c4)cc3n2)cn1`, the GI50 was 2 µM and the TGI was determined as 5.15 µM.
On the same counts, the results for `COc1cc(/C=C/c2cc(/C=C/c3ccc(O)c(OC)c3)n(-c3ccccc3)n2)ccc1O` are 0.157 µM and greater than 23.2 µM.

The test system of the next test is SF-268 CNS. As to the kind of experiment: inhibition of tumour cell growth, NCI panel, 48 h.
With `CCc1c(Oc2ccc(C(C)=O)cc2)c2ccccc2[nH]c1=O`, the GI50 is 18.1 µM and the TGI amounted to 61 µM.
For the compound `Cc1nc2cccc([N+](=O)[O-])c2c(NCCCN(C)C)c1C`, the TGI was greater than 100 µM.
On to `Cn1c(N2NC(=O)C(N=Nc3ccc(S(N)(=O)=O)cc3)C2=O)nc(-c2ccco2)c(C#N)c1=O` (configuration not stated), for which the GI50 was 15.6 µM and the TGI was greater than 50 µM.
With `Cc1c(C(=O)N/N=C/c2ccc(Cl)cc2)nnn1-c1ccnc2c(C(F)(F)F)cccc12`, the GI50 is 11.7 µM and the TGI amounted to 28.2 µM.
